This passage reports TGI and GI50 results from PubChem BioAssay (NCI).

SMILES strings stand for the structures.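 Test compounds were applied to cells in 96-well plates for 48 hours at 5 doses. Abbreviation: GI50, concentration required for 50% inhibition of growth. TGI: concentration producing complete growth inhibition.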

Holding throughout (assay): NCI-60 cell line screen, 48 h
The subject of experiment [1] is PC-3 prostate.
In experiment [2] the test system is SN12C renal.
The test system of experiment [3] is SK-MEL-5 melanoma.
Experiment [4] concerns SNB-75 CNS.
In experiment [5] the test system is SF-295 CNS.
For experiment [6], the system named is NCI/ADR-RES ovarian.
The subject of experiment [7] is CAKI-1 renal.
Experiment [8] has as its system HT29 colon.
The test system of experiment [9] is EKVX NSCLC.

Regarding `Nc1ccc2c(=O)cc(-c3ccc(Br)s3)[nH]c2n1`, the TGI was greater than 100 µM in experiment [1]; greater than 100 µM in experiment [2]; 11.3 µM in experiment [3]; greater than 28.6 µM in [4]; greater than 31.9 µM in experiment [5]; greater than 26.9 µM in experiment [6]. Besides, the TGI in experiment [7] was greater than 100 µM; in experiment [8], greater than 44.2 µM; in [9], greater than 100 µM.
For `CCCC1=C(OC)C(=O)c2c(C)cc(Cl)nc2C1=O`, the TGI worked out at 26.4 µM in experiment [1]; 9.62 µM in [2]; 16.7 µM in [3]; 20.1 µM in [4]; 31.9 µM in experiment [5]; 14.2 µM in experiment [6]. Besides, the TGI in experiment [7] was 21.7 µM; in experiment [8], 8.45 µM; in experiment [9], 20.7 µM.
Turning to `CC(C)OP(=O)(OC(C)C)C(C(C)C)N(C)C(N)=NC#N` (stereo unspecified), the TGI in experiment [1], in [2], in experiment [3], in [4], in experiment [5] and in experiment [6] was greater than 100 µM each time. The TGI in [7], in experiment [8] and in [9] was greater than 100 µM each time.
Turning to `Cc1cc(S(=O)(=O)Nc2nc3cscc3c(=O)n2N)c(S)cc1Cl`, the TGI in experiment [1] was greater than 100 µM; in experiment [2], greater than 100 µM; in experiment [3] it was greater than 100 µM; in experiment [4], 58.5 µM; in experiment [5], greater than 100 µM; in experiment [6], 73.4 µM. Besides, the TGI in [7], in experiment [8] and in [9] was greater than 100 µM in each case.
Turning to `O=C1C(N2CCN(CCOCCO)CC2)=C(Cl)C(=O)c2ncccc21`, the TGI in [1] is 38.9 µM; in [2], 35.3 µM; in [3], 30.6 µM; in experiment [4] it was greater than 100 µM; in experiment [5], greater than 100 µM; in experiment [6], greater than 100 µM. The TGI in experiment [7] was determined as 31.8 µM; in experiment [8] it was 46 µM; in experiment [9] it was 35.1 µM. The GI50 in experiment [5] is greater than 100 µM.
As for `Cc1cc(C)nc(NS(=O)(=O)c2ccc(NNc3c4ccccc4nc4c(C(=O)Nc5ccc(S(=O)(=O)Nc6cc(C)on6)cc5)cccc34)cc2)n1`, the TGI was greater than 100 µM in experiment [1]; greater than 100 µM in experiment [2]; greater than 100 µM in [3]; 86 µM in experiment [4]; greater than 100 µM in [5]; greater than 100 µM in experiment [6]. Moreover, the TGI was greater than 100 µM in [7], 49.1 µM in [8] and 65.7 µM in experiment [9].
`Oc1cccc2c(Br)ccnc12`: the TGI in experiment [1] was 38.1 µM; in experiment [2], 21.7 µM; in experiment [3], 14.2 µM; in [4], 66.2 µM; in experiment [5], greater than 100 µM; in experiment [6], 12.7 µM. Besides, the TGI was greater than 100 µM in experiment [7], 19.4 µM in [8] and 11.6 µM in [9].
With `Cc1cc2nc3ccccc3n2c2ccccc12`, the TGI in experiment [1], in experiment [2], in [3], in [4], in [5] and in experiment [6] was greater than 10 µM each time. Also, the TGI in experiment [7], in experiment [8] and in experiment [9] was greater than 10 µM each time.
For the compound `O=C1C=CC(=O)c2c(O)c(N3CCOCC3)c(Cl)c(O)c21`, the TGI in [1] was 1.56 µM; in experiment [2], 0.425 µM; in [3] it was 0.822 µM; in experiment [4], 2.04 µM; in experiment [5] it was 3.21 µM; in [6], 1.43 µM. Moreover, the figures for the TGI in experiment [7], in experiment [8] and in experiment [9] were 1.27 µM, 0.586 µM and 2.79 µM, respectively.
Turning to `COc1cccc(NC(=O)CC(=O)n2nc(-c3ccccc3)c(N=Nc3ccc(Cl)cc3)c2-c2ccccc2)c1`, the TGI in experiment [1] is greater than 100 µM; in experiment [2], greater than 100 µM; in experiment [3], 53.8 µM; in [4], greater than 86.9 µM; in experiment [5], greater than 88.8 µM; in experiment [6], 52.6 µM. Moreover, the TGI in experiment [7] is greater than 100 µM; in experiment [8], 56.7 µM; in [9], 92.8 µM.
Consider `CCOC(=O)c1cc2c3c(c(C(C)=O)c(OC)c2[nH]1)N(C(=O)CC)CC3`, for which the TGI in [1] stood at 72.7 µM; in experiment [2] it was 42.9 µM; in [3], 24.5 µM; in experiment [4], 57.1 µM; in experiment [5], 39.1 µM; in experiment [6], 31 µM. Besides, the TGI was found to be 35.9 µM in experiment [7], 30.5 µM in experiment [8] and 30.6 µM in experiment [9].
For `COc1cc(S(=O)(=O)Nc2ccc(-c3csc(N4C(=O)C(Cl)C4c4ccccc4O)n3)cc2)ccc1Cl` (stereo unspecified), the TGI in experiment [1], in [2], in experiment [3], in [4], in [5] and in [6] was greater than 100 µM throughout. Besides, the TGI in experiment [7], in [8] and in experiment [9] was greater than 100 µM each time.
Consider `O=C1N2CCC[C@H]2CS1(=O)=O`, for which the TGI in experiment [1] was 31.4 µM; in experiment [2], 29.1 µM; in [3] it was 33.3 µM; in experiment [4], 41.2 µM; in experiment [5], greater than 100 µM; in experiment [6] it was greater than 100 µM. For the same compound, the TGI was 18.2 µM in [7], 75.1 µM in [8] and 44.4 µM in experiment [9].
Turning to `CCOC(=O)CCc1cn2cc(Br)nc(OC)c2n1`, the TGI in experiment [1], in experiment [2], in experiment [3], in experiment [4], in experiment [5] and in [6] was greater than 100 µM in each case. Moreover, the TGI in experiment [7], in [8] and in experiment [9] was greater than 100 µM in each case.
In the case of `CC(CCc1nc2ccccc2s1)(c1ccc(O)cc1)c1ccc(O)cc1`, the TGI in experiment [1] worked out at 27.9 µM; in experiment [2] it was 33.6 µM; in [3], 33.1 µM; in experiment [4], 34 µM; in experiment [5] it was 28.9 µM; in [6], 57.2 µM. Further, the TGI stood at 45 µM in experiment [7], 38.4 µM in [8] and 32.3 µM in [9].
Consider `O=c1c2ccccc2nc(N/N=C/c2ccc([N+](=O)[O-])cc2)n1-c1ccccc1`, for which the TGI in experiment [1] is greater than 100 µM; in experiment [2] it was greater than 100 µM; in experiment [3] it was greater than 100 µM; in experiment [4] it was 56.7 µM; in experiment [5], 62.2 µM; in experiment [6], greater than 100 µM. In addition, the results for the TGI in experiment [7], in experiment [8] and in [9] were 49.4 µM, greater than 100 µM and 79.6 µM, respectively.
For the compound `Cc1c(OCc2cccc3ccccc23)ccc2c(=O)cc(SCCN3CCOCC3)oc12`, the TGI in experiment [1], in [2], in [3], in [4], in [5] and in experiment [6] was greater than 100 µM each time. Besides, the TGI in experiment [7], in experiment [8] and in experiment [9] was greater than 100 µM each time.
For the compound `c1ccc2c(Nc3ncco3)cccc2c1`, the TGI in [1], in [2], in experiment [3], in experiment [4], in experiment [5] and in experiment [6] was greater than 10 µM in each case. In addition, the TGI in experiment [7], in [8] and in experiment [9] was greater than 10 µM in each case.
Turning to `C/C(=C\Cc1ccc(F)cc1)CCCCCC/C(C)=C/Cc1ccc(F)cc1`, the TGI in experiment [1] was 33.3 µM; in experiment [2], 31.5 µM; in experiment [3], 27.8 µM; in [4] it was 35 µM; in [5], 24.6 µM; in [6] it was 31.9 µM. In addition, the TGI in [7] came out at 25.5 µM; in [8], 33.3 µM; in experiment [9], 37.2 µM.
As for `Clc1ccc(-c2nn3c(COc4cccc(OCc5nnc6sc(-c7ccc(Cl)cc7)nn56)c4)nnc3s2)cc1`, the TGI was greater than 100 µM in experiment [1]; 29.1 µM in [2]; 50.7 µM in experiment [3]; 73.5 µM in experiment [4]; greater than 100 µM in [5]; greater than 100 µM in experiment [6]. The TGI is 48.8 µM in experiment [7], 60.2 µM in [8] and 56.8 µM in experiment [9].
`COC(=O)/C=C\n1nc(Br)c(=O)[nH]c1=O`: the TGI in experiment [1], in [2], in experiment [3], in experiment [4], in experiment [6] and in [7] was greater than 100 µM each time. Besides, the TGI in experiment [8] and in experiment [9] was greater than 100 µM throughout.
For `O=C1c2ccccc2C2(c3ccc(F)cc3)NCCN12` (stereo unspecified), the TGI in experiment [1], in experiment [2], in [3], in experiment [4], in experiment [5] and in experiment [6] was greater than 100 µM throughout. Also, the TGI in experiment [7], in [8] and in experiment [9] was greater than 100 µM in each case.
In the case of `C=C(CN(CC)CC)C1(c2ccccc2)CC2(CCCC2)C(=O)O1` (stereo unspecified), the TGI in experiment [1] was greater than 100 µM; in [2] it was greater than 100 µM; in experiment [3], greater than 100 µM; in experiment [4] it was 92.6 µM; in experiment [5] it was greater than 100 µM; in [6], 84.4 µM. Further, the TGI in experiment [7] was greater than 100 µM; in experiment [8] it was 77.9 µM; in experiment [9], greater than 100 µM.
As to `COc1c(C)c(C/C=C(\C)CCCC(C)CCCC(C)CCCC(C)C)c(OC)c2ccccc12` (stereo unspecified), the TGI in [1], in experiment [2], in [3], in experiment [4], in experiment [5] and in [6] was greater than 100 µM throughout. In addition, the TGI in experiment [7], in [8] and in [9] was greater than 100 µM in each case.
Take `COc1cc2c3c(n(C)c(=O)c2cc1OC)-c1cc2c(cc1/C3=C\CCCCCBr)OCO2`: the TGI in [1] was greater than 100 µM; in experiment [2] it was greater than 100 µM; in [3] it was 20.7 µM; in [4], 43 µM; in experiment [5], greater than 100 µM; in experiment [6], greater than 100 µM. For the same compound, the TGI in experiment [7], in experiment [8] and in experiment [9] was greater than 100 µM each time.
For the compound `O=Nc1c(-c2c(O)[nH]c3ccc(I)cc23)[nH]c2ccccc12`, the TGI in [1] is greater than 27.9 µM; in experiment [2], 17.9 µM; in [3] it was greater than 100 µM; in experiment [4], 20.7 µM; in experiment [5], greater than 71.7 µM; in [6] it was greater than 63.4 µM. The TGI in experiment [7] is greater than 100 µM; in experiment [8] it was greater than 21.6 µM; in experiment [9] it was greater than 69.7 µM.
With `Cc1cc(N2CCCCC2)nc2ccc(Cc3ccc4nc(N5CCCCC5)cc(C)c4c3)cc12`, the TGI in experiment [1], in experiment [2], in experiment [3], in experiment [4], in experiment [5] and in experiment [6] was greater than 100 µM throughout. The TGI in experiment [7], in experiment [8] and in experiment [9] was greater than 100 µM each time.
Take `CCOc1ccc2nc3nc(=O)[nH]c(C)c3c(NC(C)(CO)CO)c2c1`: the TGI in experiment [1], in experiment [2], in [3], in experiment [4], in experiment [5] and in experiment [6] was greater than 100 µM in each case. Further, the TGI in experiment [7], in experiment [8] and in [9] was greater than 100 µM each time.
As to `Oc1ccc(Cl)cc1-c1cc(-c2ccccc2)nc(=S)[nH]1`, the TGI in experiment [1] was greater than 100 µM; in [2] it was greater than 100 µM; in experiment [3], greater than 100 µM; in [4] it was 59.2 µM; in experiment [5], greater than 100 µM; in [6], greater than 100 µM. Also, the TGI in [7], in [8] and in experiment [9] was greater than 100 µM each time.
